Each block holds one molecule with its values, some of them ahead of it.
What was measured:
[1] = target: T1, mouse SLC26A6b (Mus musculus, UniProt Q8CIW6, R572P); test: Radiolabelled anion uptake/exchange in Xenopus oocytes expressing mouse SLC26A6b; type: cell-based; conditions: for cis-inhibition of SO4 2− transport / cis-inhibition of Cl−—Cl− exchange: 25 mM of the anion; for cis-inhibition of SO4 2− transport: 35SO4 uptake one hour (FIG. 7B); for cis-inhibition of Cl−—Cl− exchange: 36Cl− uptake one hour (FIG. 7A); for exchange of SO4 2− with extracellular anion (trans-stimulation of 35SO4 efflux): 10 mM of the anion, 30 minutes (FIG. 7C); for 36Cl− uptake: 8.3 mM 36Cl
T1 construct: Full-length mouse SLC26A6b and SLC26A 1 cDNAs were cloned into the Xenopus expression vector pGEMHE; expressed in transfected cells; host or cells: Xenopus laevis oocytes injected with in vitro transcribed cRNA (pGEMHE)
T1 sequence (Q8CIW6 24-758 R572P limits assumed): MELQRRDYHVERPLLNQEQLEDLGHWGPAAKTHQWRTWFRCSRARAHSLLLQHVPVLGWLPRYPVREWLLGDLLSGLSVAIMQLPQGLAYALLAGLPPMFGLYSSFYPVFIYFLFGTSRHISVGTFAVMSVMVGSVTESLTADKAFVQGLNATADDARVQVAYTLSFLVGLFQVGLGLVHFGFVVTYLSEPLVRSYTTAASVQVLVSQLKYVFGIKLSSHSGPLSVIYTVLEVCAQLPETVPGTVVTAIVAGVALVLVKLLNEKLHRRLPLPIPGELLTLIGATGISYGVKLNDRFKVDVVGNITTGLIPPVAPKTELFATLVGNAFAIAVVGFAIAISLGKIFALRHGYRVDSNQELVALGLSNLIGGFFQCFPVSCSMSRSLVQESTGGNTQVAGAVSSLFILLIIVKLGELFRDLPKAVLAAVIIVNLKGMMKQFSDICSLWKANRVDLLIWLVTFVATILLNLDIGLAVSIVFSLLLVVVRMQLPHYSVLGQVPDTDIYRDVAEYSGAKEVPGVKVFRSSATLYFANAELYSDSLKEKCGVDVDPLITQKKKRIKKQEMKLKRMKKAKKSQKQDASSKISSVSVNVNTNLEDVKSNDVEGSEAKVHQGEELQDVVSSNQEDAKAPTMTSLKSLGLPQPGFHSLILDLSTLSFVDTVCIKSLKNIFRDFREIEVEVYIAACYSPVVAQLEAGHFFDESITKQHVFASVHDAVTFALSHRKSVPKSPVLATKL
Method: (§1) Full-length mouse SLC26A6b and SLC26A 1 cDNAs were cloned into the Xenopus expression vector pGEMHE (Liman et al., 1992). The SLC26A6 and SLC26A1 expression constructs were linearized, and cRNA was transcribed in vitro using T7 RNA polymerase and a […] MMACHINE® transcription kit (Ambion, Inc. of Austin, Tex., United States of America). Defolliculated oocytes were injected with 25 nl to 50 nl of water or with a solution containing cRNA at a concentration of 0.5 μg/μl (12.5 ng to 25 ng per oocyte) using a Nanoliter-2000 injector (WPI Instruments of Sarasota, Fla., United States of America). Oocytes were incubated at 17° C. in 50% Leibovitz's L-15 media supplemented with penicillin/streptomycin (1000 units/ml) and glutamine for 2-3 days for uptake assays.
(§2) For sulphate uptake assays, oocytes were pre-incubated for 20 minutes in chloride-free uptake medium (100 mM NMDG gluconate, 2 mM potassium gluconate, 1 mM calcium gluconate, 1 mM magnesium gluconate, 10 mM HEPES-Tris, pH 6.0 or pH 7.5 as indicated), followed by a 60-minute period for uptake in the same medium supplemented with 1 mM K2^35SO4 (40 μCi/ml). The cells were then washed three times in uptake buffer with 5 mM cold K2SO4 to remove tracer activity in the extracellular fluid. The oocytes were dissolved individually in 10% SDS, and tracer activity was determined by scintillation counting. Uptake of chloride, formate, and oxalate was assayed using the same chloride-free uptake solutions, substituting 8.3 mM ^36Cl, 500 μM [^14C]oxalate, or 50 μM [^14C]formate for labeled sulphate.
(§3) For sulphate exchange and cis-inhibition experiments, the concentration of NMDG-gluconate in the uptake solution was adjusted to maintain isotonic osmolality, which was confirmed experimentally using a FISKE® osmometer (Fiske Associates, Inc. of Bethel, Conn., United States of America).

[2] = system: xSLC26A6; conditions: FIG. 17
Text: (§4) One or more of these xPDS genes likely corresponds to the Xenopus descendant of mammalian SLC26A3.

[3] = system: xPDS3; test: Anion transport in Xenopus oocytes expressing xPDS3; type: cell-based, Xenopus laevis
Text: as §4

[4] = target: mouse SLC26A2 (Mus musculus, UniProt Q62273)
Method: as §2

[5] = system: xPDS2; test: Anion transport in Xenopus oocytes expressing xPDS2; type: cell-based, Xenopus laevis
Text: as §4

[6] = system: human SLC26A6
Text: FIG. 13 depicts chloride uptake in Xenopus oocytes expressing Xenopus xPDS2, human SLC26A3 (DRA), mouse Slc26a6, and human SLC26A6, with extracellular pH of 7.5 (open bars) or 6.0 (dark fill).
FIG. 15 depicts sulphate transport mediated by Xenopus oocytes expressing human SLC26A6, at varying concentrations of extracellular SO4^2− and constant amounts of tracer ^35SO4^2−.
A feature of the mammalian SLC26 gene family is relatively low conservation between orthologs in mouse and man; the percent amino acid identity ranges from a low of 76% (SLC26A8) to a high of 90% (SLC26A9), versus the reported median of 86% for mouse and human orthologous genes. Makalowski, W. & Boguski, 1998. This sequence divergence is reflected in functional variation, which can be exploited for structure-function analysis.

[7] = system: xPDS1; test: Anion transport in Xenopus oocytes expressing xPDS1; type: cell-based, Xenopus laevis
Text: as §4

[8] = target: T2, mouse SLC26A1 (Mus musculus, UniProt P58735, C691Y); test: Radiolabelled anion uptake in Xenopus oocytes expressing mouse SLC26A1; type: cell-based; conditions: for effect of extracellular anion on SO4 2− transport via SLC26A1: 25 mM of the anion (FIG. 9A, 6C); for transport via SLC26A1: FIG. 6B, FIG. 8B
T2 construct: Full-length mouse SLC26A6b and SLC26A 1 cDNAs were cloned into the Xenopus expression vector pGEMHE; expressed in transfected cells; host or cells: Xenopus laevis oocytes injected with in vitro transcribed cRNA (pGEMHE)
T2 sequence (P58735 1-704 C691Y): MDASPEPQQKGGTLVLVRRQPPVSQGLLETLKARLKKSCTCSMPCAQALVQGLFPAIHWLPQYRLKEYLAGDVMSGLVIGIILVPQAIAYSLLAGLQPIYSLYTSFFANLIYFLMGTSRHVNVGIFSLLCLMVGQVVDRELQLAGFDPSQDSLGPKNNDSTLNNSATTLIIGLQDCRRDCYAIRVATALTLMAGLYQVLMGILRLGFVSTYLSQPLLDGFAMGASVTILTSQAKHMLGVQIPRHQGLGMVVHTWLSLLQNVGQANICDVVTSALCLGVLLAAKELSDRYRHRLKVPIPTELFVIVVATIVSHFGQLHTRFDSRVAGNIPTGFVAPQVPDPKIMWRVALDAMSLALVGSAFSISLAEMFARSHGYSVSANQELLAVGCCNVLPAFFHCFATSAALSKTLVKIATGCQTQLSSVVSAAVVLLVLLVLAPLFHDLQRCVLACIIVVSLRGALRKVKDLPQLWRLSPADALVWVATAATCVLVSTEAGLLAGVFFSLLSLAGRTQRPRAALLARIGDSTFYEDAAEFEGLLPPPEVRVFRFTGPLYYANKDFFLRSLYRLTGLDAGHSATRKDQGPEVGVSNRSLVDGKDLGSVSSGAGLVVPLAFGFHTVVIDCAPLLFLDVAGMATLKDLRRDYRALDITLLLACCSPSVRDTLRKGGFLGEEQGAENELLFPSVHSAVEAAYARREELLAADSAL
Method: as §1, §2, §3

[9] = target: T1, mouse SLC26A6b; test: Radiolabelled anion uptake/exchange in Xenopus oocytes expressing mouse SLC26A6b; type: cell-based; conditions: pH 7.4; DIDS 1 mM (FIG. 6A)
[10] = target: rat SLC26A1 (Rattus norvegicus, UniProt P45380); conditions: Satoh et al., 1998; cited from earlier work
[11] = target: SLC26A1 (Rattus norvegicus, UniProt P45380); conditions: Markovich & James, 1999; cited from earlier work
SLC26A1, sequence (P45380 whole entry): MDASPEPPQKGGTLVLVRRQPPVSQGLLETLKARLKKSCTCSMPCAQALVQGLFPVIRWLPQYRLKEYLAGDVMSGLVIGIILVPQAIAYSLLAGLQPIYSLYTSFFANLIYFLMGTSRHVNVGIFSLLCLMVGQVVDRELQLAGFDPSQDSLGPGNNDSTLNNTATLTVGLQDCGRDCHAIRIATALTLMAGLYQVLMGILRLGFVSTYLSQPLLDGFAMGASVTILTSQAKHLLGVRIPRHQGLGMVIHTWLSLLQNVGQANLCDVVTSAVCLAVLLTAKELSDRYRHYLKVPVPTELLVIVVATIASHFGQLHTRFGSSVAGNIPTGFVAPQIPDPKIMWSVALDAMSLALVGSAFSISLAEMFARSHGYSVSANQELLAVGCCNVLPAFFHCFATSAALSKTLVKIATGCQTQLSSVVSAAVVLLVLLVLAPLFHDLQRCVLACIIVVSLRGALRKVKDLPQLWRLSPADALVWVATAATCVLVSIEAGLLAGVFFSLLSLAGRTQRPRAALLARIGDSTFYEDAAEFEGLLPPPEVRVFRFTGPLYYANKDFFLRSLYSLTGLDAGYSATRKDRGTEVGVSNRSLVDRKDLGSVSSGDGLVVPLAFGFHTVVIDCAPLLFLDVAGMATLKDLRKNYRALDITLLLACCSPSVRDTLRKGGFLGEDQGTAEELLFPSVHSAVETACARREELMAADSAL

mouse SLC26A2, sequence (Q62273 whole entry): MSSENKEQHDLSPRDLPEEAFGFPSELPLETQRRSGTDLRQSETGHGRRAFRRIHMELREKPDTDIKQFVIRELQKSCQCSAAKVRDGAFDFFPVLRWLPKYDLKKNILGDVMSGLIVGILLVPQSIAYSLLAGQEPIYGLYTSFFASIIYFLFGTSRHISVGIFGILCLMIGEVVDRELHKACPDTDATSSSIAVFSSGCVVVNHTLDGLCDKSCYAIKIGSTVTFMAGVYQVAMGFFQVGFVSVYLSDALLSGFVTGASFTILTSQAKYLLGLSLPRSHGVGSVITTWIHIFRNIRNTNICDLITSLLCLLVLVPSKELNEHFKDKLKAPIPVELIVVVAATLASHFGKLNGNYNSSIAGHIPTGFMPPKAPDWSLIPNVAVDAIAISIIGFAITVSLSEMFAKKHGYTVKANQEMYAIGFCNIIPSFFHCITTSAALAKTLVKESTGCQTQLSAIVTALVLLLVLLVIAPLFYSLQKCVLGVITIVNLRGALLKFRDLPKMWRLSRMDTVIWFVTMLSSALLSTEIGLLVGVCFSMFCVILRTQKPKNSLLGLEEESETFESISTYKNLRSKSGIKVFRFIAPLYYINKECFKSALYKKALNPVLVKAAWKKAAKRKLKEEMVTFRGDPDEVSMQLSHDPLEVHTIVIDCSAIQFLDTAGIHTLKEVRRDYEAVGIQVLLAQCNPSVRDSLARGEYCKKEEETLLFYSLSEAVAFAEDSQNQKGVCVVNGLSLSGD
rat SLC26A1, sequence (P45380 whole entry): as the sequence (P45380 whole entry) above

cis-inhibition of SO4 2− transport [1]: cis-inhibitory
cis-inhibition of Cl−—Cl− exchange [1]: cis-inhibitory
Molecule: Br [Br^−]

Molecule: Cl [Cl^−, chloride]
Cl− transport [2]: robust
Cl− transport ([3]; FIG. 17): robust
effect of extracellular Cl− on 35SO4 2− uptake ([4]; 25 mM Cl− (FIG. 10B)): significantly inhibited
Cl− transport ([5]; FIG. 17): robust
exchange of SO4 2− with extracellular anion (trans-stimulation of 35SO4 efflux) [1]: clearly mediated exchange
36Cl− uptake ([1]; pH 6.0): 4193±109 pmol/oocyte/hour
36Cl− uptake ([1]; pH 7.4): 4345±243 pmol/oocyte/hour
Cl− transport ([6]; FIG. 13): clearly transports
Cl− transport ([7]; FIG. 17): robust
effect of extracellular anion on SO4 2− transport via SLC26A1 [8]: much higher
transport via SLC26A1 [8]: not transported
Cl−—Cl− exchange ([8]; presence or absence of 25 mM SO4 2−): minimal

sulphate uptake, sensitivity to DIDS ([1]; pH 6.0, DIDS 1 mM (FIG. 6A)): 101±10 pmol/oocyte/hour
sulphate uptake, sensitivity to DIDS [9]: 301±24 pmol/oocyte/hour
Molecule: O=S(=O)(O)c1cc(N=C=S)ccc1C=Cc1ccc(N=C=S)cc1S(=O)(=O)O [DIDS, 4,4′-diisothiocyanatostilbene-2,2′-disulfonic acid]

Molecule: O=C(O)O [HCO3^−, bicarbonate]
activation of SO4 2− uptake [10]: does not activate

cis-inhibition of SO4 2− transport [1]: cis-inhibitory
cis-inhibition of Cl−—Cl− exchange [1]: cis-inhibitory
Molecule: I [I^−, iodide]

Molecule: O=CO [formate]
formate uptake ([1]; 50 μM [14C]formate (FIG. 8B)): 45±5 pmol/oocyte/hour
exchange of SO4 2− with extracellular anion (trans-stimulation of 35SO4 efflux) [1]: clearly mediated exchange
cis-inhibition of Cl−—Cl− exchange [1]: significantly inhibited
effect of extracellular anion on SO4 2− transport via SLC26A1 [8]: activate
transport via SLC26A1 [8]: not transported
formate uptake ([8]; SLC26A1-injected oocytes): 7 pmol/oocyte/h

cis-inhibition of Cl−—Cl− exchange [1]: not lactate significantly inhibited
effect of extracellular anion on SO4 2− transport via SLC26A1 [8]: activate
Molecule: CC(O)C(=O)O (stereo not drawn) [lactate]

Molecule: O=S(=O)(O)O [sulphate]
SO4 2− transport [3]: none of the xPDS clones transport
35SO4 2− uptake ([4]; absence of extracellular Cl− (FIG. 10A)): robust
35SO4 2− uptake at pH 6.0 ([4]; pH 6.0 versus pH 7.4 (FIG. 10A)): increased significantly
SO4 2− transport [5]: none of the xPDS clones transport
exchange of SO4 2− with extracellular anion (trans-stimulation of 35SO4 efflux) [1]: clearly mediated exchange
cis-inhibition of Cl−—Cl− exchange [1]: significantly inhibited
sulphate uptake at pH 7.4 versus pH 6.0 ([1]; SLC26A6b-injected oocytes): not significantly altered
sulphate uptake independent of Na+ ([1]; SLC26A6b-injected oocytes, Na+-free): 652±57 pmol/oocyte/hour
sulphate uptake independent of Cl− ([1]; SLC26A6b-injected oocytes, pH 7.4, Cl−-free medium, 1 mM 35SO4): 602±0 pmol/oocyte/hour
absolute rate of SO4 2− transport ([1]; mouse Slc26a6, increasing extracellular SO4 2− (FIG. 14)): ~4,000 pmol/oocyte/hr
absolute rate of SO4 2− transport ([6]; human SLC26A6, increasing extracellular SO4 2− (FIG. 15)): ~200 pmol/oocyte/hr
SO4 2− transport [7]: none of the xPDS clones transport
effect of extracellular anion on SO4 2− transport via SLC26A1 [8]: strongly cis-inhibitory
SO4 2− uptake ([8]; SLC26A1-injected oocytes (FIG. 6A)): 72±2 pmol/oocyte/h

Molecule: mercury
effect on maximal sulphate transport via SLC26A1 [11]: strongly inhibited

Reference: patent US20060014940A1, “Cloning and characterization of slc26a6, slc26a1, and slc26a2 anion exchangers” (priority 2002, published 2006)
